Test results reported in patent US9284366B2, “Anti-acetylated huntingtin antibodies and uses therof” (The General Hospital Corporation, priority 2006, dated 2016).

Key:
C. elegans neurons = details: dose-dependent manner; cited from earlier work
[1] = test system: total Htt and acetyl-Htt level in Neuro2a cells; experiment: Proteasome and autophagy inhibitors in Neuro2a cells transfected with Htt590-97Q (western blot); assay type: cell-based; details: lactacystin 10 μM or 3-methyladenine 10 mM for 12 hrs
Method: Cell Culture and Transfection. Neuro2a, STHdh^Q7/Q7, and COS-7 cells were transfected using Lipofectamine 2000. For HDAC inhibition, TSA (1 μM) and NAM (5 mM) were applied 6 hrs and 16 hrs, respectively, prior to harvest. Unless indicated otherwise, cells were harvested 24 hrs after transfection. For the experiments with proteasome and autophagy inhibitors, Neuro2a cells were treated with lactacystin (10 μM) or 3-methyladenine (10 mM) for 12 hrs. For assessment of LC3 conversion, immortalized striatal cells (STHdh^Q7/Q7) were cultured as described (29), transfected for 48 hrs and treated with TSA (4 μM) and NAM (5 mM) 15 hrs prior to harvest.
To examine which of these pathways may be responsible for clearance of acetylated Htt polypeptide, Neuro2a cells were transfected with Htt590-97Q and treated with inhibitors of proteasome or autophagy. […] In order to further examine whether acetylated Htt polypeptide leads to activation of macroautophagy, LC3 conversion was assessed (17, 18). LC3, a mammalian homologue of yeast Atg8, is a diffusely distributed protein that upon activation by mammalian Atg7 undergoes posttranslational modification resulting in the product LC3-II, which firmly associates with the autophagosomal membrane. The amount of LC3-II, which migrates faster than LC3-I on SDS-PAGE, provides a reliable measure of autophagic activity (17). In order to assess autophagic activity in relation to Htt acetylation, immortalized striatal cells (STHdh^Q7/Q7) were transfected with Htt590-97Q or acetylation-resistant Htt590-97Q-KR, treated with TSA and NAM and analyzed by western blotting with anti-LC3 antibody (FIG. 3B).

Drosophila model of HD = details: pharmacological inhibition of HDAC; cited from earlier work

For CC(/C=C/C(=O)NO)=C\[C@@H](C)C(=O)c1ccc(N(C)C)cc1 [TSA, trichostatin A], the “degeneration of C. elegans neurons induced by mutant Htt” value (C. elegans neurons) is given as “reduced the degeneration”.

For CC(=O)N[C@@H](CSC(=O)[C@]1([C@@H](O)C(C)C)NC(=O)[C@H](C)[C@@H]1O)C(=O)O [lactacystin], the acetyl-Htt level [1] was “no significant effect” and the “total Htt level” value [1] was “no significant effect”.

With Cn1cnc(N)c2ncnc1-2 [3-methyladenine] the acetyl-Htt level [1] was “accumulation”.

For O=C(CCCCCCC(=O)Nc1ccccc1)NO [SAHA, Suberoylanilide hydroxamic acid], the “lethality and degeneration in Drosophila model of HD” value (Drosophila model of HD) is listed as “rescue the lethality and degeneration”.
